Reference: patent publication US20260133203A1, “DETECTION OF FUMARATE-DERIVED MODIFICATION IN A TEST SAMPLE” (UNIVERSITY OF SOUTH CAROLINA, priority 2017, published 2026)
Where a name gives a salt, the structure may show the parent alone.

Biological target: T1, Collapsin Response Mediator 2 (CRMP2) (Rattus norvegicus, UniProt P47942)
T1 construct: Primary neurons from newborn rat brain cortices were isolated and cultured; endogenous in cells; host or cells: primary rat cortical neurons (postnatal day 1)
Assay: LC-MS/MS site mapping of CRMP2 peptide GLYDGPVCEVSVTPK succination
Type: cell-based
Details: primary rat neurons, +2 charge-state, y8 and b8 fragment ions
Protocol: Primary neurons from newborn rat brain cortices were isolated and cultured using an adaptation of methods described previously. Briefly, postnatal day 1 rats were sacrificed by decapitation, the brains were aseptically dissected, and cortices were separated from the rest of the brain in ice-cold Hibernate®-A medium (Life Technologies) containing 2% (v/v) B-27 supplement (Life Technologies) and 0.5 mM glutamine (Invitrogen™). The tissue was minced in fragments of about 1 mm3 with a scalpel and subjected to digestion with 2 mg/ml papain (Worthington) in the supplemented Hibernate®-A medium for 20 minutes at 30° C. in a shaker incubator set at 100 rpm. After thorough trituration through a fire-polished Pasteur pipette, the tissue was allowed to settle for 5 minutes and the supernatant was carefully layered on top of a discontinuous OptiPrep™ (Sigma-Aldrich™) gradient prepared in Hibernate®-A medium; the layers contained 35, 25, 20 and 15% OptiPrep™. […] After a centrifugation at 500 g for 5 min at room temperature, cells were resuspended in Neurobasal™—A medium containing 0.5 mM glutamine, 2% B-27 supplement, and 5 ng/ml bFGF (Invitrogen™); counted and plated on 24-well plates pretreated with 0.01% poly-L-lysine (Sigma-Aldrich™) at a density of 200,000 cells/well. […] The protein content in the different samples was determined by the Lowry assay. […]

site of succination on CRMP2: Cys504
SMILES: COC(=O)/C=C/C(=O)OC [DMF, dimethyl fumarate]
